# From patent publication US20250360162A1, “Naphthoic Acid-Derived Polymers as Antimicrobial Agents” (UNIVERSITY OF SOUTH CAROLINA, priority 2024, published 2025)
# Assays:
# MDR-K. pneumoniae = experiment: Resistance development study, serial passaging at sub-MIC; assay type: cell-based, Klebsiella pneumoniae; conditions: 14 passages over 2 weeks
# Description: (§1) The resistance development study was performed following the protocol published earlier. […] To compare the result, the last-resort gram-negative antibiotics, Polymyxin-B, and carbapenem type, Imipenem, were used in the study. According to the protocol elaborated for the MIC assay above, the MIC values of compounds and antibiotics were determined against corresponding bacteria overnight. The next day, a new MIC assay was performed where the bacterial suspension was prepared from the bacteria grown at the sub-MIC (MIC/2) of compound concentration of the first-day experiment. The next 14 continuous passages were repeated as described above. The resistance development was calculated as the fold increase of MIC by dividing MIC to the initial MIC values of every passage and then plotted against the passage number. These experiments were performed in triplicate.
# (§2) MDR bacteria employ various strategies inherently or adaptively to build up resistance, which becomes a serious health concern. […] Bacteria were exposed to continuous serial passaging at the sub-MIC level over 2 weeks. Antibiotics imipenem and polymyxin-B were used as controls.
# MDR-P. aeruginosa = experiment: as above; assay type: cell-based, Pseudomonas aeruginosa; conditions: 14 passages over 2 weeks
# Description: as §1, §2
# [1] = test system: MDR-P. aeruginosa biofilm; experiment: Biofilm eradication, confocal fluorescence microscopy (SYTO 9/PI, Z-stack); assay type: cell-based, Pseudomonas aeruginosa
# Description: (§3) 18 mm glass coverslips were sterilized with flame after rinsing with ethanol. The bacterial biofilms were grown by following the previously published protocol. After the preparation of mid-log grown MDR-P. aeruginosa bacteria in TSB media, bacteria concentration was adjusted in NB with 1% (w/v) glucose and 1% (w/v) NaCl supplements to ˜10^5 CFU/mL. 2 mL of the diluted bacterial cell culture was used to fill the 6-well plate and 18 mm sterilized glass coverslips were added to each well. The plate was incubated at 37° C. for 72 h. After 72 h, 1×PBS (pH=7.4) was used to wash away unadhered planktonic bacteria. The carefully washed coverslips containing surface-attached biofilms were placed into a new 6-well sterile plate. Later, various concentration of 1-QAC-Hex (2 mL) was added into the wells and incubated for 24 h. Polymyxin-B was used as a control antibiotic. As a negative control, 2 mL of media was added without compound. The following three experiments were adjusted in the further steps as follows.
# Coverslips were washed with 1×PBS and left to dry for 2 min. MDR-P. aeruginosa biofilm was simultaneously stained with equal volumes of (5 μL) SYTO 9 (60 μM) and PI (15 μM) and was placed on the slide immediately followed by incubation in darkness for 15 min. The glass coverslips images on the slide were captured with a Zeiss LSM 410 Confocal Laser Scanning Microscope in 40× magnification. […]
# [2] = test system: MDR-P. aeruginosa biofilm; experiment: Biofilm eradication, quantification through bacterial cell viability; assay type: cell-based, Pseudomonas aeruginosa; conditions: 16×MIC
# Description: as §3
# Once again, coverslips were washed with 1×PBS and transferred to another new, sterile plate. Afterward, 2 mL of trypsin-EDTA solution (diluted in saline at a 1:10 ratio) was added to each well and incubated for 15 min. Samples of 20 μL of each concentration were then 10-fold serially diluted in 1×PBS. […]
# [3] = test system: mouse red blood cells (RBCs)
# Description: Hemolysis was given as HC50 where the concentration of a polymer causes 50% lysis of RBCs. […] RBC in PBS was used as the negative control to subtract any background signals.
Molecule,change in MIC after serial passaging (MDR-K. pneumoniae),change in MIC after serial passaging (MDR-P. aeruginosa),"thickness of biofilm ([1]; 16×MIC, control 9.96 μm)","live/dead cells in biofilm after treatment ([1]; polymyxin-B 16×MIC, 3-QAC-Hex 16×MIC and 32×MIC)","killing of viable bacteria within the biofilm, in words [2]",lysis of RBCs [3]
polymyxin-B,16 fold,8 fold,9.03 μm,a large amount of live cells,unable to kill the viable bacteria protected within the biofilm,–
Triton-X 100,–,–,–,–,–,100%
C[C@@H](O)[C@H]1C(=O)N2C(C(=O)O)=C(SCCN=CN)C[C@H]12 [imipenem],16 fold,16 fold,–,–,–,–
